Results: ChEMBL document CHEMBL4304820, “Design, synthesis and biological evaluation of novel serotonin and dopamine receptor ligands being 6-bromohexyl saccharine derivatives” (Bioorg Med Chem Lett, 2019)

biological target: T1, 5-hydroxytryptamine receptor 1A (Homo sapiens, UniProt P08908); experiment: Agonist activity at human 5 HT1A receptor expressed in HEK293 cells assessed as inhibition of forskolin-stimulated cAMP accumulation incubated for 30 mins by TR-FRET assay; format: functional, cell-based
T1 sequence (P08908 whole entry): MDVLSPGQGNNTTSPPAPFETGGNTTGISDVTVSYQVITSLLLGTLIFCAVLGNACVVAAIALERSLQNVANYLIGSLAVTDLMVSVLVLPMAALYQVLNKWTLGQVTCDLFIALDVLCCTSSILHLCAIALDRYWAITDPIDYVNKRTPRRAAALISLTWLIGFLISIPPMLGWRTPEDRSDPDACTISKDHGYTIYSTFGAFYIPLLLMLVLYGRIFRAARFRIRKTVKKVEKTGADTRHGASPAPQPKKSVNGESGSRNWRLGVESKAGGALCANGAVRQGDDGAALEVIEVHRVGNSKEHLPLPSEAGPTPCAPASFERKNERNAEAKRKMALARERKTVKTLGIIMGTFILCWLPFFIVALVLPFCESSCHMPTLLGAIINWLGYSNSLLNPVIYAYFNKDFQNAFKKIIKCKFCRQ

EC50 [nM]	Structure (SMILES)
56	O=C1c2ccccc2S(=O)(=O)N1CCCCCCN1CCN(c2cccc(C(F)(F)F)c2)CC1

biological target: T2, 5-hydroxytryptamine receptor 1A (Rattus norvegicus, UniProt P19327); experiment: Displacement of [3H]-8-OH-DPAT from 5HT1A receptor in rat brain hippocampus incubated for 60 mins by radioligand binding assay
T2 sequence (P19327 whole entry): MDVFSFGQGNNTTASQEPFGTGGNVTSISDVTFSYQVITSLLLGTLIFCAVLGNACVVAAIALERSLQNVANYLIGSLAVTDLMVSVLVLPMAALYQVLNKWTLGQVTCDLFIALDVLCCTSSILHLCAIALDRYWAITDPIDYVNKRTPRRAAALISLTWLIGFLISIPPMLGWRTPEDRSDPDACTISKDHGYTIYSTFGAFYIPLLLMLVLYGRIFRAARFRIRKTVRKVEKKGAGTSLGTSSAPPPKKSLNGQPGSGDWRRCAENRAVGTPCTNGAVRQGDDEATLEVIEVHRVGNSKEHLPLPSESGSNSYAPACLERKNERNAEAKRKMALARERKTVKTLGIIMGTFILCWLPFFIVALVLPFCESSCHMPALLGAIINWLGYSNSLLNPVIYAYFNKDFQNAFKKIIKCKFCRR

Ki [nM]	Structure (SMILES)
0.09	O=c1ccc2ccc(OCCCCN3CCN(c4cccc5sccc45)CC3)cc2[nH]1 [BREXPIPRAZOLE]

biological target: T2, 5-hydroxytryptamine receptor 1A; experiment: Displacement of [3H]-8-OH-DPAT from 5HT1A receptor in Wistar rat brain cerebral cortex incubated for 30 mins by liquid scintillation spectrometry; format: tissue-based

Ki [nM]	Structure (SMILES)
100	O=C1c2ccccc2S(=O)(=O)N1CCCCN1CCN(c2cccc(C(F)(F)F)c2)CC1

biological target: 5-hydroxytryptamine receptor 6 (Homo sapiens, UniProt P50406); experiment: Displacement of [3H]LSD from full length human cloned 5HT6R expressed in HEK293 cells incubated for 1 hr by radioligand displacement assay; format: cell-based
Sequence (P50406 whole entry): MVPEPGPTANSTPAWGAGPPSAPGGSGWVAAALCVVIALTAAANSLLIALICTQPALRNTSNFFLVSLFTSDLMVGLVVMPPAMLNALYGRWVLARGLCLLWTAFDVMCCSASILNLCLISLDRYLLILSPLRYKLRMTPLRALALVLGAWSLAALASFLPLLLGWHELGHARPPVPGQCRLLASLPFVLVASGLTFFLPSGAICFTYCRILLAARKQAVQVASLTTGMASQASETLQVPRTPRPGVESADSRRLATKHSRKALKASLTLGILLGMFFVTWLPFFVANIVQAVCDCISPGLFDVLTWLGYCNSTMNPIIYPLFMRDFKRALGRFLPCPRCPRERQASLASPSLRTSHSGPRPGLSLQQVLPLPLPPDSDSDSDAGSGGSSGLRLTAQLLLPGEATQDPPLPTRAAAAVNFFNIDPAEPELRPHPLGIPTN

Ki [nM]	Structure (SMILES)
157	O=C1c2ccccc2S(=O)(=O)N1CCCCCCN1CCN(c2cccc3ccccc23)CC1
1620	O=C1c2ccccc2S(=O)(=O)N1CCCCCCN1CCN(c2ccccc2F)CC1
132	O=C1c2ccccc2S(=O)(=O)N1CCCCCCN1CCN(c2ccc(Cl)c(Cl)c2)CC1
921	COc1cccc(N2CCN(CCCCCCN3C(=O)c4ccccc4S3(=O)=O)CC2)c1
2350	O=C1c2ccccc2S(=O)(=O)N1CCCCCCN1CCN(c2ccccn2)CC1
1270	O=C1c2ccccc2S(=O)(=O)N1CCCCCCN1CCN(c2ccccc2C(F)(F)F)CC1
459	O=C1c2ccccc2S(=O)(=O)N1CCCCCCN1CCN(c2ccccc2Cl)CC1
920	O=C1c2ccccc2S(=O)(=O)N1CCCCCCN1CCN(c2cccc(Cl)c2Cl)CC1
104	O=C1c2ccccc2S(=O)(=O)N1CCCCCCN1CCN(c2ncccn2)CC1
971	O=C1c2ccccc2S(=O)(=O)N1CCCCCCN1CCN(c2ccccc2)CC1
52	O=C1c2ccccc2S(=O)(=O)N1CCCCCCN1CCN(c2cccc(C(F)(F)F)c2)CC1
58	O=C1c2ccccc2S(=O)(=O)N1CCCCCCN1CCN(c2nsc3ccccc23)CC1
1720	O=C1c2ccccc2S(=O)(=O)N1CCCCCCN1CCN(c2cccc3cccnc23)CC1
372	O=C1c2ccccc2S(=O)(=O)N1CCCCCCN1CCN(c2cccc(Cl)c2)CC1

biological target: 5-hydroxytryptamine receptor 2A (Rattus norvegicus, UniProt P14842); experiment: Displacement of [3H]ketanserin from 5-HT2A receptor in Wistar rat brain frontal cortex incubated for 30 mins by radioligand binding assay; format: tissue-based
Sequence (P14842 whole entry): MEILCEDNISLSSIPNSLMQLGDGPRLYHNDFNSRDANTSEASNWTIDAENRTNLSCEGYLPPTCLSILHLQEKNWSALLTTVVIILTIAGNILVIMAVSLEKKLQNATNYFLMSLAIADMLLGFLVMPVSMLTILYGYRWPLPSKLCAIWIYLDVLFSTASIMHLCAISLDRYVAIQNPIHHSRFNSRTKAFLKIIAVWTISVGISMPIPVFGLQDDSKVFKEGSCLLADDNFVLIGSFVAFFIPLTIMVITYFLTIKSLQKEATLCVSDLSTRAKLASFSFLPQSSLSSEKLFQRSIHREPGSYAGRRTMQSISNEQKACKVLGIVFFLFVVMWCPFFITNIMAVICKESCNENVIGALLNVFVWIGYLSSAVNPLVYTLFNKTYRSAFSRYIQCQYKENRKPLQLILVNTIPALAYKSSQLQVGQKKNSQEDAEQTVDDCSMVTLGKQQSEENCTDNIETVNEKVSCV

Ki [nM]	Structure (SMILES)
2250	O=C1c2ccccc2S(=O)(=O)N1CCCCN1CCN(c2cccc(C(F)(F)F)c2)CC1

biological target: T3, D(2) dopamine receptor (Homo sapiens, UniProt P14416); experiment: Displacement of [3H]raclopride from human cloned D2 receptor expressed in HEK293 cells by radioligand binding assay; format: cell-based
T3 sequence (P14416 whole entry): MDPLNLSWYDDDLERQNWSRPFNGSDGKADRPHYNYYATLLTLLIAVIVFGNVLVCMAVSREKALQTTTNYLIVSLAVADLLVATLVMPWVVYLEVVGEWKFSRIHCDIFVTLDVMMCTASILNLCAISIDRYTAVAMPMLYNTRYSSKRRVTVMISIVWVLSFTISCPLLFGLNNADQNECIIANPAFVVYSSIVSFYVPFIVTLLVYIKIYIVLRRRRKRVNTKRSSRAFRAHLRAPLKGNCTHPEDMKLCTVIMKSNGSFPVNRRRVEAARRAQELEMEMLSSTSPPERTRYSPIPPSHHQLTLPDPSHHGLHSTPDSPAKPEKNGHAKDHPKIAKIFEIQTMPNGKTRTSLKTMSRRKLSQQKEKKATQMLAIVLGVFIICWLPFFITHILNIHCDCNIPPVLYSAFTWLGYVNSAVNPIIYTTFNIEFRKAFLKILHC

Ki [nM]	Structure (SMILES)
1220	O=C1c2ccccc2S(=O)(=O)N1CCCCN1CCN(c2ncccn2)CC1 [IPSAPIRONE]

biological target: 5-hydroxytryptamine receptor 2A (Homo sapiens, UniProt P28223); experiment: Displacement of [3H]ketanserin from full length human cloned 5HT2A receptor expressed in CHO-K1 cells incubated for 1 hr by radioligand displacement assay; format: cell-based
Sequence (P28223 whole entry): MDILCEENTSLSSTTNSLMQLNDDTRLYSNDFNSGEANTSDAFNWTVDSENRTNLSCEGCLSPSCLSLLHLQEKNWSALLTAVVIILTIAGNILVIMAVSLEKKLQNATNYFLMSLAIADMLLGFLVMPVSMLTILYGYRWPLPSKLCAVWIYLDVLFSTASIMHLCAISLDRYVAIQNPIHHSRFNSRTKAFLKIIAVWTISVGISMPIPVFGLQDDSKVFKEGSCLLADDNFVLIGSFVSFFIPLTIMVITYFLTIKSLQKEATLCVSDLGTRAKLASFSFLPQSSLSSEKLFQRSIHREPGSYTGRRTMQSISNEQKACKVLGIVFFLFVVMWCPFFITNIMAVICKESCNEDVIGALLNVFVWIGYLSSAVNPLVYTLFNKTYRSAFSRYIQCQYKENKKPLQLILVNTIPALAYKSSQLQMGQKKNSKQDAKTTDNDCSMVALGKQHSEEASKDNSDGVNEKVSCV

Ki [nM]	Structure (SMILES)
91	O=C1c2ccccc2S(=O)(=O)N1CCCCCCN1CCN(c2cccc3ccccc23)CC1
307	O=C1c2ccccc2S(=O)(=O)N1CCCCCCN1CCN(c2ccccc2F)CC1
283	O=C1c2ccccc2S(=O)(=O)N1CCCCCCN1CCN(c2ccc(Cl)c(Cl)c2)CC1
342	COc1cccc(N2CCN(CCCCCCN3C(=O)c4ccccc4S3(=O)=O)CC2)c1
1290	O=C1c2ccccc2S(=O)(=O)N1CCCCCCN1CCN(c2ccccn2)CC1
922	O=C1c2ccccc2S(=O)(=O)N1CCCCCCN1CCN(c2ccccc2C(F)(F)F)CC1
266	O=C1c2ccccc2S(=O)(=O)N1CCCCCCN1CCN(c2ccccc2Cl)CC1
209	O=C1c2ccccc2S(=O)(=O)N1CCCCCCN1CCN(c2cccc(Cl)c2Cl)CC1
183	O=C1c2ccccc2S(=O)(=O)N1CCCCCCN1CCN(c2ncccn2)CC1
321	O=C1c2ccccc2S(=O)(=O)N1CCCCCCN1CCN(c2ccccc2)CC1
167	O=C1c2ccccc2S(=O)(=O)N1CCCCCCN1CCN(c2cccc(C(F)(F)F)c2)CC1
23	O=C1c2ccccc2S(=O)(=O)N1CCCCCCN1CCN(c2nsc3ccccc23)CC1
205	O=C1c2ccccc2S(=O)(=O)N1CCCCCCN1CCN(c2cccc3cccnc23)CC1
361	O=C1c2ccccc2S(=O)(=O)N1CCCCCCN1CCN(c2cccc(Cl)c2)CC1

biological target: T4, 5-hydroxytryptamine receptor 1A (Homo sapiens) (UniProt P08908); experiment: Antagonist activity at human 5 HT1A receptor expressed in HEK293 cells assessed as cAMP accumulation incubated for 30 mins in presence of forskolin/8-OH-DPAT by TR-FRET assay; format: functional, cell-based
T4 sequence (whole entry): T1 sequence (P08908 whole entry)

Kb [nM]	Structure (SMILES)
14	O=C1c2ccccc2S(=O)(=O)N1CCCCCCN1CCN(c2cccc3ccccc23)CC1
7	O=C1c2ccccc2S(=O)(=O)N1CCCCCCN1CCN(c2cccc3cccnc23)CC1

biological target: 5-hydroxytryptamine receptor 7 (Homo sapiens, UniProt P34969); experiment: Displacement of [3H]5-CT from full length human cloned 5-HT7bR expressed in HEK293 cells incubated for 1 hr by radioligand displacement assay; format: cell-based
Sequence (P34969 whole entry): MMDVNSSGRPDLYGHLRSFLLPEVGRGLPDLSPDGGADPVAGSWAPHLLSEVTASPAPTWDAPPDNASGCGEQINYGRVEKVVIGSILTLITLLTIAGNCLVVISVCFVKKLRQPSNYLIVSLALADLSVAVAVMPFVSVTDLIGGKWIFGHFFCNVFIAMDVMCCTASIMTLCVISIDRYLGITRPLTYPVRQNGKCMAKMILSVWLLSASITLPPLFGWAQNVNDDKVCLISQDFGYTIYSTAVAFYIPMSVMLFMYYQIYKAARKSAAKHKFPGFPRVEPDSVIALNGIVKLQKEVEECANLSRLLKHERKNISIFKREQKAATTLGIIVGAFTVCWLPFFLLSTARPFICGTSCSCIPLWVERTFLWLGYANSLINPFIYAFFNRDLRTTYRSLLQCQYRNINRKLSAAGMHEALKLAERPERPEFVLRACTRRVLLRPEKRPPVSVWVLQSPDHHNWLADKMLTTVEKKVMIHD

Ki [nM]	Structure (SMILES)
20	O=C1c2ccccc2S(=O)(=O)N1CCCCCCN1CCN(c2cccc3ccccc23)CC1
322	O=C1c2ccccc2S(=O)(=O)N1CCCCCCN1CCN(c2ccccc2F)CC1
258	O=C1c2ccccc2S(=O)(=O)N1CCCCCCN1CCN(c2ccc(Cl)c(Cl)c2)CC1
305	COc1cccc(N2CCN(CCCCCCN3C(=O)c4ccccc4S3(=O)=O)CC2)c1
552	O=C1c2ccccc2S(=O)(=O)N1CCCCCCN1CCN(c2ccccn2)CC1
195	O=C1c2ccccc2S(=O)(=O)N1CCCCCCN1CCN(c2ccccc2C(F)(F)F)CC1
120	O=C1c2ccccc2S(=O)(=O)N1CCCCCCN1CCN(c2ccccc2Cl)CC1
119	O=C1c2ccccc2S(=O)(=O)N1CCCCCCN1CCN(c2cccc(Cl)c2Cl)CC1
35	O=C1c2ccccc2S(=O)(=O)N1CCCCCCN1CCN(c2ncccn2)CC1
192	O=C1c2ccccc2S(=O)(=O)N1CCCCCCN1CCN(c2ccccc2)CC1
58	O=C1c2ccccc2S(=O)(=O)N1CCCCCCN1CCN(c2cccc(C(F)(F)F)c2)CC1
45	O=C1c2ccccc2S(=O)(=O)N1CCCCCCN1CCN(c2nsc3ccccc23)CC1
21	O=C1c2ccccc2S(=O)(=O)N1CCCCCCN1CCN(c2cccc3cccnc23)CC1
233	O=C1c2ccccc2S(=O)(=O)N1CCCCCCN1CCN(c2cccc(Cl)c2)CC1

biological target: D(2) dopamine receptor (Rattus norvegicus, UniProt P61169); experiment: Displacement of [3H]raclopride from D2 receptor in rat brain striatum incubated for 60 mins by radioligand binding assay; format: tissue-based
Sequence (P61169 whole entry): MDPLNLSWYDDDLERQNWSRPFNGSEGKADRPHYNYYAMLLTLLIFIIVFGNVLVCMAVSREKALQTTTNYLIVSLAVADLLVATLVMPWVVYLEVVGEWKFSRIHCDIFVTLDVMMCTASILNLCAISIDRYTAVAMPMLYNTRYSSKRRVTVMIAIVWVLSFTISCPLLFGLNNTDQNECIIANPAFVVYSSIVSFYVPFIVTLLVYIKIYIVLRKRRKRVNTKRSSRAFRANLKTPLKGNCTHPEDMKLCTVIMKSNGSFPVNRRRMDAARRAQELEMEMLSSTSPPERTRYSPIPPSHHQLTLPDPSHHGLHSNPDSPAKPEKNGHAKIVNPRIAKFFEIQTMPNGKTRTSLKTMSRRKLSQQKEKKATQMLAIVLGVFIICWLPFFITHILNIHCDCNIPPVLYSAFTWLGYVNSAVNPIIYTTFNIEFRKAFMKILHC

Ki [nM]	Structure (SMILES)
3.8	O=c1ccc2ccc(OCCCCN3CCN(c4cccc5sccc45)CC3)cc2[nH]1 [BREXPIPRAZOLE]

biological target: T3, D(2) dopamine receptor; experiment: Antagonist activity at human D2 receptor expressed in HEK293 cells assessed as cAMP accumulation incubated for 30 mins in presence of forskolin/dopamine by TR-FRET assay; format: functional, cell-based

Kb [nM]	Structure (SMILES)
14	O=C1c2ccccc2S(=O)(=O)N1CCCCCCN1CCN(c2cccc3ccccc23)CC1
319	O=C1c2ccccc2S(=O)(=O)N1CCCCCCN1CCN(c2cccc(C(F)(F)F)c2)CC1
10	O=C1c2ccccc2S(=O)(=O)N1CCCCCCN1CCN(c2cccc3cccnc23)CC1

biological target: T1, 5-hydroxytryptamine receptor 1A; experiment: Displacement of [3H]-8-OH-DPAT from full length human cloned 5HT1A receptor expressed in HEK293 cells incubated for 1 hr by radioligand displacement assay; format: cell-based

Ki [nM]	Structure (SMILES)
9	O=C1c2ccccc2S(=O)(=O)N1CCCCCCN1CCN(c2cccc3ccccc23)CC1
12	O=C1c2ccccc2S(=O)(=O)N1CCCCCCN1CCN(c2ccccc2F)CC1
54	O=C1c2ccccc2S(=O)(=O)N1CCCCCCN1CCN(c2ccc(Cl)c(Cl)c2)CC1
91	COc1ccccc1N1CCN(CCCCCCN2C(=O)c3ccccc3S2(=O)=O)CC1
19	COc1cccc(N2CCN(CCCCCCN3C(=O)c4ccccc4S3(=O)=O)CC2)c1
13	O=C1c2ccccc2S(=O)(=O)N1CCCCCCN1CCN(c2ccccn2)CC1
156	O=C1c2ccccc2S(=O)(=O)N1CCCCCCN1CCN(c2ccccc2C(F)(F)F)CC1
26	O=C1c2ccccc2S(=O)(=O)N1CCCCCCN1CCN(c2ccccc2Cl)CC1
58	O=C1c2ccccc2S(=O)(=O)N1CCCCCCN1CCN(c2cccc(Cl)c2Cl)CC1
24	O=C1c2ccccc2S(=O)(=O)N1CCCCCCN1CCN(c2ncccn2)CC1
20	O=C1c2ccccc2S(=O)(=O)N1CCCCCCN1CCN(c2ccccc2)CC1
25	O=C1c2ccccc2S(=O)(=O)N1CCCCCCN1CCN(c2cccc(C(F)(F)F)c2)CC1
23	O=C1c2ccccc2S(=O)(=O)N1CCCCCCN1CCN(c2nsc3ccccc23)CC1
4	O=C1c2ccccc2S(=O)(=O)N1CCCCCCN1CCN(c2cccc3cccnc23)CC1
84	O=C1c2ccccc2S(=O)(=O)N1CCCCCCN1CCN(c2ccc(Cl)cc2)CC1
21	O=C1c2ccccc2S(=O)(=O)N1CCCCCCN1CCN(c2cccc(Cl)c2)CC1
327	COc1ccc(N2CCN(CCCCCCN3C(=O)c4ccccc4S3(=O)=O)CC2)cc1

biological target: T3, D(2) dopamine receptor; experiment: Displacement of [3H]raclopride from full length human cloned D2L receptor expressed in HEK293 cells incubated for 1 hr by radioligand displacement assay; format: cell-based

Ki [nM]	Structure (SMILES)
8	O=C1c2ccccc2S(=O)(=O)N1CCCCCCN1CCN(c2cccc3ccccc23)CC1
24	O=C1c2ccccc2S(=O)(=O)N1CCCCCCN1CCN(c2ccccc2F)CC1
105	O=C1c2ccccc2S(=O)(=O)N1CCCCCCN1CCN(c2ccc(Cl)c(Cl)c2)CC1
61	COc1ccccc1N1CCN(CCCCCCN2C(=O)c3ccccc3S2(=O)=O)CC1
113	COc1cccc(N2CCN(CCCCCCN3C(=O)c4ccccc4S3(=O)=O)CC2)c1
239	O=C1c2ccccc2S(=O)(=O)N1CCCCCCN1CCN(c2ccccn2)CC1
27	O=C1c2ccccc2S(=O)(=O)N1CCCCCCN1CCN(c2ccccc2C(F)(F)F)CC1
45	O=C1c2ccccc2S(=O)(=O)N1CCCCCCN1CCN(c2ccccc2Cl)CC1
132	O=C1c2ccccc2S(=O)(=O)N1CCCCCCN1CCN(c2cccc(Cl)c2Cl)CC1
51	O=C1c2ccccc2S(=O)(=O)N1CCCCCCN1CCN(c2ncccn2)CC1
48	O=C1c2ccccc2S(=O)(=O)N1CCCCCCN1CCN(c2ccccc2)CC1
7	O=C1c2ccccc2S(=O)(=O)N1CCCCCCN1CCN(c2cccc(C(F)(F)F)c2)CC1
9	O=C1c2ccccc2S(=O)(=O)N1CCCCCCN1CCN(c2nsc3ccccc23)CC1
15	O=C1c2ccccc2S(=O)(=O)N1CCCCCCN1CCN(c2cccc3cccnc23)CC1
28	O=C1c2ccccc2S(=O)(=O)N1CCCCCCN1CCN(c2ccc(Cl)cc2)CC1
39	O=C1c2ccccc2S(=O)(=O)N1CCCCCCN1CCN(c2cccc(Cl)c2)CC1
950	COc1ccc(N2CCN(CCCCCCN3C(=O)c4ccccc4S3(=O)=O)CC2)cc1
